Data published in patent US20210121438A1, “METHODS FOR TREATING OR PREVENTING CONFORMATION DISEASES AND METHODS FOR DRUG SCREENING” (GARAGE BRAIN SCIENCE CO., LTD, priority 2018, published 2021).

Tests used:
[1] = target: T1, PFN1 (Homo sapiens, UniProt P07737); test: B-isox precipitation, PFN1; format: binding; conditions: 293T cell fractions
T1 construct: endogenous in cells; host or cells: 293T
Procedure: (§1) B-isox Precipitation: The 293T cells were harvested and lysed with RIPA buffer. The protein concentration was adjusted to 1 to 10 mg/mL, and 10 mM biotinylated isoxazole was added to the cell lysate to a final concentration of 100 to 200 µM. The mixtures were then incubated at 4° C. for 60 min, centrifuged at 15000 rpm for 15 min at 4° C., and the supernatant was discarded. The entire reaction volumes were subjected to SDS-PAGE and western blotting.
Because visible SMN granules were not observed in the cytosol under normal conditions, we deduced that SMN polymers may participate in heteromeric interactions with other prion-like proteins to fulfill biological functions in the cytosol. […] Mutations in PFN1 cause co-aggregation with TDP-43 in patients with familial amyotrophic lateral sclerosis (ALS), supporting the hypothesis that PFN1 is a prion-like protein. […] Thus, we postulated that these interactions were mediated by prion-like nature. Furthermore, we incubated full-length SMN or a panel of exon deletion constructs of SMN with b-isox and then performed a western blot analysis to identify the b-isox binding site in SMN. […] The domains encoded by exons 2b and 6 have consistently been reported to self-interact. […] Based on the results of the solubility examination, variants containing exons 6-7 were not detected in the insoluble fraction, although those variants formed visible granules. […]

[2] = target: T2, TDP-43 and Lam B recombinant proteins (Homo sapiens, UniProt Q13148); test: In vitro assembly of TDP-43 and Lam B filaments (electron microscopy); format: biochemical; conditions: 3 μM proteins, b-isox 100 μM, 2 hr, RT
T2 construct: Purified full-length TDP-43 and Lam B recombinant proteins (equivalent 3 μM monomer)
T2 sequence (Q13148 whole entry): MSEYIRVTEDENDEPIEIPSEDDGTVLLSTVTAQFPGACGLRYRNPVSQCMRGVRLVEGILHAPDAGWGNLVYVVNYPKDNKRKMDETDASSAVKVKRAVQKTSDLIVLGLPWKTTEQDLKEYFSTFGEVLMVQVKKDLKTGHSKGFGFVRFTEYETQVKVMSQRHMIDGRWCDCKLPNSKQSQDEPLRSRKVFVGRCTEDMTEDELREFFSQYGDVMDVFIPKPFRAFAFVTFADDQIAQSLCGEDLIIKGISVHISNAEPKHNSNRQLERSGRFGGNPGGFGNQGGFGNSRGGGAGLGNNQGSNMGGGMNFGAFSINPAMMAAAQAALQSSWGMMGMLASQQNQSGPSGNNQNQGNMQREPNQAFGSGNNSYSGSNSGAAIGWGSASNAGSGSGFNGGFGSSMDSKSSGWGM
Procedure: To investigate the de novo mechanism of heterotypic interactions of the cross-β, we incubated TDP-43 and Lam B recombinant proteins with or without b-isox for 2 hr in vitro. […] In cells, the percentage of cross-β conformers of LC protein was approximately 10˜70% by the b-isox binding analysis, e.g. 21.2% cross-β conformers of TDP-43 in Mes23.5 dopaminergic neurons (FIG. 13j). We assume that inside the cells, most of the intrinsically disordered LC domains are protected through structure folding or binding with other proteins that limits the cross-β-nucleating reactions.

[3] = target: T3, SMN (Homo sapiens, UniProt Q16637); test: B-isox precipitation, SMN; format: binding; conditions: 100 μM b-isox, lysates of mes23.5 and 293T cells, 4° C.
T3 construct: endogenous in cells; host or cells: 293T (also mes23.5)
T3 sequence (Q16637 2-294): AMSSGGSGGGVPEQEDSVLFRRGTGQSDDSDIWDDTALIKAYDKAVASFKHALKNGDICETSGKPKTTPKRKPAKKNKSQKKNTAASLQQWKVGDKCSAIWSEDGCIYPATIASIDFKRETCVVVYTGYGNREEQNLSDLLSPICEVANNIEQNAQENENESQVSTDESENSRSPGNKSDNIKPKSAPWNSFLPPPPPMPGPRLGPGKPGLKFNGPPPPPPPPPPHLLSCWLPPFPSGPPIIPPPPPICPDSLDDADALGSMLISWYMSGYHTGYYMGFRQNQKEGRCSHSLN
Procedure: as §1
Biotinylated isoxazole (b-isox), a recently identified specific chemical probe, specifically recognizes the cross-β prion-like polymer and sequentially precipitates with proteins with low complexity, prion-like domains, or phase-separated domains, such as TDP-43 and Fus. We initially incubated 100 μM b-isox with cell lysates of mes23.5 and 293T cells at 4° C. to chemically precipitate whole prion-like proteins and then analyzed the efficiency of SMN binding by western blotting to assess the prion-like or phase transition potential of SMN (FIGS. 8a and b). […] H3K4me3 proteins were used as control for insoluble loading (FIG. 8c). Indeed, insoluble SMN has been reported to be important for the assembly of Cajal bodies (CBs) via the SUMO-like interacting motif (SIM-like). Thus, sumoylation is one of the cellular regulatory mechanisms that trigger nuclear SMN to form the separated phase though cross-β polymerization.

[4] = tested on: SMNA7 cells; test: Morphology (neurite-like structure) of SMNA7 cells; format: cell-based; conditions: after treating with b-isox
Description: We investigate whether baicalein can act as a pharmacological chaperone to refold misfolded SMNA7 into a functional prion-like domain, as shown in FIG. 8 (FIG. 10a). […] PFN1 is a known SMN interactor in the cytosol. We further examined whether baicalein attenuated the degradation of the SMNA7 protein. […] We found baicalein increased the length of axons from NSC34 cells expressing SMNA7 by approximately 2-fold (FIG. 10g).

[5] = target: T4, Rb (Homo sapiens, UniProt P06400); test: B-isox precipitation, Rb; format: binding; conditions: 100 μM b-isox, lysates of 293T cells, 4° C.
T4 construct: endogenous in cells; host or cells: 293T
T4 sequence (P06400 1-928): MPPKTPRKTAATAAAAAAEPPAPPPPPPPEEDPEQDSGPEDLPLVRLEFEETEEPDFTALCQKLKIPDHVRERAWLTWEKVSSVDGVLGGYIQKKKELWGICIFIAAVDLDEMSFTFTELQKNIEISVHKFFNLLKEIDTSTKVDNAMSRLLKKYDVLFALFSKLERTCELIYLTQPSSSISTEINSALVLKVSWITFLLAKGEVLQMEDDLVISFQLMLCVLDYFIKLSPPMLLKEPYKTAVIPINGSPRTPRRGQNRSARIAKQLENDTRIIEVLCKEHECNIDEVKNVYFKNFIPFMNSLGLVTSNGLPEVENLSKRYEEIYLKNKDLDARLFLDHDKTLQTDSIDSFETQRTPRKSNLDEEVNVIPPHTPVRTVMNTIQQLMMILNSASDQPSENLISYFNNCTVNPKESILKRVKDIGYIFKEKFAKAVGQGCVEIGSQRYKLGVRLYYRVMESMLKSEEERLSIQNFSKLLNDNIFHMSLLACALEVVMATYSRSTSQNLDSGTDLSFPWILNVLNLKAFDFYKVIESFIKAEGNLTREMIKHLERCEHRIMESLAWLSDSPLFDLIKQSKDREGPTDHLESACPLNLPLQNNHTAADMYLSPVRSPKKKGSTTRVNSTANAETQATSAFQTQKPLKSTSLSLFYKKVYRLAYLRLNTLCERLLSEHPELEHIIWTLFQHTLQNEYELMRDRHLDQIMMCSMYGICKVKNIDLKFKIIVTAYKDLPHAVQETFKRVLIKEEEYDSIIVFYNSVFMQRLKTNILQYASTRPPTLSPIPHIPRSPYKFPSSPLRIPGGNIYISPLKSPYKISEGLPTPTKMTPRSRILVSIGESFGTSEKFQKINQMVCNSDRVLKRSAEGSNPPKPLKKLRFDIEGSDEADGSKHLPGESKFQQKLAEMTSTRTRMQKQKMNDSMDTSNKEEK
Procedure: as §1
We incubated 100 μM b-isox with cell lysates of 293T cells at 4° C. to chemically precipitate whole prion-like proteins and then analyzed the efficiency of Rb binding by western blotting to assess the prion-like or phase transition potential of Rb (FIG. 22). […] The N-terminus of Rb (aa. 10-56) stabilizes prion-like conformation (FIG. 22c). Deletion of Rb N-terminus leads to protein degradation (FIG. 22d).

T1 sequence (P07737 whole entry): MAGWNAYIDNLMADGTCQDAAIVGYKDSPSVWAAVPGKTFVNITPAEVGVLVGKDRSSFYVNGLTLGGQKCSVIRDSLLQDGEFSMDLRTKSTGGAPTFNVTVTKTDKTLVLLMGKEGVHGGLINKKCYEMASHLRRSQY

## O=C1N[C@H]2[C@H](CS[C@H]2CCCCC(=O)OCCCCCCNC(=O)c2cc(-c3cccs3)on2)N1 [b-isox, biotinylated isoxazole]
[1]
  precipitation of PFN1 by b-isox: precipitated
[2]
  short cylindrical filaments of TDP-43 and Lam B: disrupted
[3]
  precipitation of SMN by b-isox: precipitation of both SMN and sumoylated SMN
[4]
  morphology of SMNA7 cells: became round and detached
[5]
  precipitation of Rb by b-isox: precipitation of Rb
